# Assay results as given in patent US4767781A, “Derivatives of beta-amino-gamma-trimethylammonio-butyrate and their production and use” (Takeda Chemical Industries, Ltd., priority 1981, dated 1988).
# Counter-ions that a name gives are not always drawn.
# Assays:
# [1] = system: fatty acid degradation which depends on carnitine added (rat liver homogenates); assay: Inhibition of carnitine-dependent fatty acid degradation (14CO2 from 1-14C palmitic acid) in rat liver homogenate; type: biochemical, rat (SD, male)
# Method: Then, the fatty acid degradation inhibiting activity of the compound (I), (III), (IV) was determined in accordance with the method described in P.75 "Metabolism of Lipids" which is Vol. 9 of "Seikagaku Jikken Koza" (Text of Biochemical Experiments)compiled by Tokyo Kagaku Dojin, published 1975, using rat liver homogenates. Thus, an SD strain rat (6 weeks of age, male) was fasted for one day and, then, bled to death. The liver was immediately excised and homogenized with 10 times (w/v) of a 0.25 M sucrose solution containing a 5 mM Tris-HCl buffer (pH 7.4), 0.1 mM EDTA and 1 mg/ml bovine serum albumin using a Teflon rod homogenizer. The homogenate was centrifuged at 820 ×g for 10 minutes and the supernatant was further centrifuged at 8,000 ×g for 10 minutes. The resultant pellets were suspended in the same sucrose solution as above to a concentration of 0.2 g wet liver weight/0.5 ml solution and 0.5 ml of the suspension was used as the enzyme solution in the reacrion. […] The inhibitory activity is shown as percentage of inhibitory activity to degradation activity of fatty acid facilitated by the addition of carnitine to that of not added of the compound.
# [2] = system: ketone bodies (β-hydroxybutyrate) in blood; assay: Antiketogenic activity in fasted rats (blood β-hydroxybutyrate); type: in vivo, rat (male Sprague-Dawley); details: % of control rats; 50 mg/kg oral, 4 hours after dosing, 20 h fasted, n = 5
# Method: Antiketogenic activities of derivatives of β-amino-γ-trimethylammonio-butyrate were measured as follows: […] Blood […] 4 hours later from a vein of tail and ketone bodies were measured as β-hydroxybutyrate according to the modified method of Williamson [D. H. Williamson et al.; Methods of Enzymatic Analysis, P454 (1968), Academic Press, New York]. The amount of ketone bodies was shown as a relative amount of β-hydroxybutyrate (percentage) to the amount of p-hydroxybutyrate in blood of control rats.
# [3] = Stability in aqueous solution; type: physicochemical; details: pH 3 to 9, 100° C., 10 minutes
# Solubilities = type: physicochemical
# [4] = concentration of drug 2 mM, R2 = --OH
# [5] = in petroleum ether, hexane, diethyl ether, benzene, ethyl acetate, chloroform
# [6] = in pyridine, acetone, dimethyl sulfoxide, dimethylformamide
structure (smiles),measurement,setting,value
"CCCC(=O)N[C@H](CC(=O)[O-])C[N+](C)(C)C [--CO(CH2)2 CH3, [(R)-3-carboxy-2-n-butyrylaminopropyl]trimethylammonium picrate]",Inhibition (%),[1]; [4],50%
"C[N+](C)(C)C[C@@H](CC(=O)[O-])NC(=O)OCc1ccccc1 [--COOCH2 C6 H5, (R)-3-benzyloxycarbonylamino-4-trimethylammoniobutyrate]",Inhibition (%),[1]; concentration of drug 0.2 mM,85%
same,Inhibition (%),[1]; [4],98%
same,relative amount of β-hydroxybutylate (%),[2],19.7%
"CN[C@H](CC(=O)[O-])C[N+](C)(C)C [--CH3, [(R)-2-methylammonio-3-carboxypropyl]trimethylammonium . dichloride]",Inhibition (%),[1]; concentration of drug 0.2 mM,89%
same,Inhibition (%),[1]; [4],100%
same,relative amount of β-hydroxybutylate (%),[2],19.9%
"C[N+](C)(C)C[C@H](N)CC(N)=O [--NH2, [(R)-2-ammonio-3-carbamoylpropyl]trimethylammonium dipicrate]",Inhibition (%),[1]; concentration of drug 2 μM,10%
same,Inhibition (%),[1]; concentration of drug 20 μM,27%
same,Inhibition (%),[1]; concentration of drug 0.2 mM,67%
CC(=O)N[C@H](CC(=O)[O-])C[N+](C)(C)C [FA-5859.hydrochloride],Stability,[3],stable
same,Solubility,"Solubilities; in ethanol, methanol",Soluble
same,Solubility,Solubilities; [5],Insoluble
same,Solubility,Solubilities; [6],Hardly soluble
same,Solubility,Solubilities; in water,Readily soluble
"C[N+](C)(C)C[C@@H](N)CC(=O)O.Cl.[Cl-] [--H (D-), [(S)-2-ammonio-3-carboxypropyl]trimethylammonium dichloride]",Inhibition (%),[1]; concentration of drug 0.2 mM,11%
same,Inhibition (%),[1]; [4],36%
"CCC(=O)N[C@H](CC(=O)O)C[N+](C)(C)C.[Cl-] [--COCH2 CH3, [(R)-3-carboxy-2-propionylaminopropyl]trimethylammonium chloride]",Inhibition (%),[1]; [4],44%
CC(=O)N[C@H](CC(=O)[O-])C[N+](C)(C)C [FA-5859],Stability,[3],Stable
same,Solubility,"Solubilities; in ethanol, methanol",Soluble
same,Solubility,Solubilities; [5],Insoluble
same,Solubility,Solubilities; [6],Hardly soluble
same,Solubility,Solubilities; in water,Readily soluble
"C[N+](C)(C)C[C@@H](CC(=O)O)NC(N)=O.[Cl-] [--CONH2, [(R)-3-carboxy-2-carbamoylaminopropyl]trimethylammonium chloride]",Inhibition (%),[1]; concentration of drug 0.2 mM,34%
same,Inhibition (%),[1]; [4],72%
same,relative amount of β-hydroxybutylate (%),[2],63.2%
"COC(=O)C[C@@H](N)C[N+](C)(C)C [--OCH3, [(R)-2-ammonio-3-carbomethoxypropyl]trimethylammonium dipicrate]",Inhibition (%),[1]; concentration of drug 2 μM,26%
same,Inhibition (%),[1]; concentration of drug 20 μM,73%
"CCCCCCCCCCCCCC(=O)N[C@H](CC(=O)[O-])C[N+](C)(C)C [--CO(CH2)12 CH3, (R)-3-myristoylamino-4-trimethylammoniobutyrate]",relative amount of β-hydroxybutylate (%),[2],7.9%
"CC(=O)N[C@@H](CC(=O)O)C[N+](C)(C)C.[Cl-] [--COCH3 (D-), [(S)-2-acetylamino-3-carboxypropyl]trimethylammonium chloride]",Inhibition (%),[1]; concentration of drug 0.2 mM,2%
same,Inhibition (%),[1]; [4],28%
"CCCOC(=O)C[C@@H](N)C[N+](C)(C)C [--O(CH2)2 CH3, [(R)-2-ammonio-3-carbopropoxypropyl]trimethylammonium dipicrate]",Inhibition (%),[1]; concentration of drug 2 μM,41%
same,Inhibition (%),[1]; concentration of drug 20 μM,69%
"CCCCCCCCCCCCCCCC(=O)N[C@H](CC(=O)[O-])C[N+](C)(C)C [--CO(CH2)14 CH3, (R)-3-palmitoylamino-4-trimethylammoniobutyrate]",Inhibition (%),[1]; concentration of drug 2 μM,100%
same,Inhibition (%),[1]; concentration of drug 20 μM,100%
same,relative amount of β-hydroxybutylate (%),[2],6.7%
"C[N+](C)(C)C[C@@H](CC(=O)[O-])NC=O [--COH, [(R)-3-carboxy-2-formylaminopropyl]trimethylammonium picrate]",Inhibition (%),[1]; concentration of drug 0.2 mM,53%
same,Inhibition (%),[1]; [4],84%
same,relative amount of β-hydroxybutylate (%),[2],75.7%
"CCOC(=O)C[C@@H](N)C[N+](C)(C)C [--OCH2 CH3, [(R)-2-ammonio-3-carboethoxypropyl]trimethylammonium monochloride monopicrate]",Inhibition (%),[1]; concentration of drug 2 μM,37%
same,Inhibition (%),[1]; concentration of drug 20 μM,85%
same,relative amount of β-hydroxybutylate (%),[2],5.9%
